In US8791303B2, “Herbicides” (Syngenta Limited, priority 2009, dated 2014):

Legend:
Assay type in all cases: in vivo
Lolium perenne (LOLPE) [1] = test: Example A glasshouse herbicide test, pre-emergence, LOLPE; details: Rate 250 g/ha, sprayed after cultivation for one day, evaluated after 13 days; for pest or weed control at 250 g/ha: Lolium perenne, pre-emergence, 312 h, read-out: Pre-Emergence Activity LOLPE (100=total damage to plant; 0=no damage to plant)
Method: (§1) Seeds of a variety of test species are sown in standard soil in pots. After cultivation for one day (pre-emergence) or after 8 days cultivation (post-emergence) under controlled conditions in a glasshouse (at 24/16° C., day/night; 14 hours light; 65% humidity), the plants are sprayed with an aqueous spray solution derived from the formulation of the technical active ingredient in acetone/water (50:50) solution containing 0.5% Tween 20 (polyoxyethelyene sorbitan monolaurate, CAS RN 9005-64-5).
(§2) The test plants are then grown in a glasshouse under controlled conditions in a glasshouse (at 24/16° C., day/night; 14 hours light; 65% humidity) and watered twice daily. After 13 days for pre and post-emergence, the test is evaluated (100=total damage to plant; 0=no damage to plant).
(§3) Lolium perenne (LOLPE), Alopecurus myosuroides (ALOMY), Echinochloa crus-galli (ECHCG), Avena fatua (AVEFA)

[2] = tested on: Alopecurus myosuroides (ALOMY); test: Example A glasshouse herbicide test, pre-emergence, ALOMY; details: Rate 250 g/ha, sprayed after cultivation for one day, evaluated after 13 days; for pest or weed control at 250 g/ha: Alopecurus myosuroides, pre-emergence, 312 h, read-out: Pre-Emergence Activity ALOMY (100=total damage to plant; 0=no damage to plant)
Method: as §1, §2, §3

[3] = tested on: Echinochloa crus-galli (ECHCG); test: Example A glasshouse herbicide test, pre-emergence, ECHCG; details: Rate 250 g/ha, sprayed after cultivation for one day, evaluated after 13 days; for pest or weed control at 250 g/ha: Echinochloa crus-galli, pre-emergence, 312 h, read-out: Pre-Emergence Activity ECHCG (100=total damage to plant; 0=no damage to plant)
Method: as §1, §2, §3

Avena fatua (AVEFA) [4] = test: Example A glasshouse herbicide test, pre-emergence, AVEFA; details: Rate 250 g/ha, sprayed after cultivation for one day, evaluated after 13 days; for pest or weed control at 250 g/ha: Avena fatua, pre-emergence, 312 h, read-out: Pre-Emergence Activity AVEFA (100=total damage to plant; 0=no damage to plant)
Method: as §1, §2, §3

[5] = tested on: Winter Wheat variety 'Hereward'; test: Example B crop damage test, post-emergence, unsafened wheat; details: Rate 250 g/ha; post-emergence spray after 8 days cultivation; no safener; evaluated after 13 days
Method: Seeds of the Winter Wheat variety ‘Hereward’ were sown in standard soil in pots. After 8 days cultivation under controlled conditions in a glasshouse (at 24/16° C., day/night; 14 hours light; 65% humidity), the plants were sprayed post-emergence with an aqueous spray solution derived from the formulation of the technical active ingredient in acetone/water (50:50) solution containing 0.5% Tween 20 (polyoxyethelyene sorbitan monolaurate, CAS RN 9005-64-5).
(§4) The test plants were then grown in a glasshouse under controlled conditions in a glasshouse (at 24/16° C., day/night; 14 hours light; 65% humidity) and watered twice daily. After 13 days for pre and post-emergence, the test was evaluated (100=total damage to plant; 0=no damage to plant).

[6] = tested on: Winter Wheat variety 'Hereward'; test: Example B crop damage test, post-emergence, wheat seed treated with safener cloquintocet mexyl; details: Rate 250 g/ha; post-emergence spray 8 days after sowing; seed treated with cloquintocet mexyl 0.5 g/kg dry seed; evaluated after 13 days
Method: Seeds of the Winter Wheat variety ‘Hereward’ were seed treated with a wettable powder formulation of the cereal herbicide safener, cloquintocet mexyl, at a rate of 0.5 grams per kilogram of dry seed prior to the initiation of glasshouse testing. One seed was sown per 1.5 inch plastic pot into a sandy loam soil at a depth of 1 cm, 8 days prior to application of the test compounds and was watered and grown under controlled conditions in a glasshouse (at 24/16° C., day/night; 14 hours light; 65% humidity). The plants were sprayed post-emergence with an aqueous spray solution derived from the formulation of the technical active ingredient in acetone/water (50:50) solution containing 0.5% Tween 20 (polyoxyethelyene sorbitan monolaurate, CAS RN 9005-64-5).
as §4

Lolium perenne (LOLPE) [7] = test: Example A glasshouse herbicide test, post-emergence, LOLPE; details: Rate 250 g/ha, sprayed after 8 days cultivation, evaluated after 13 days; for pest or weed control at 250 g/ha: Lolium perenne, post-emergence, 312 h, read-out: Post-Emergence Activity LOLPE (100=total damage to plant; 0=no damage to plant)
Method: as §1, §2, §3

[8] = tested on: Alopecurus myosuroides (ALOMY); test: Example A glasshouse herbicide test, post-emergence, ALOMY; details: Rate 250 g/ha, sprayed after 8 days cultivation, evaluated after 13 days; for pest or weed control at 250 g/ha: Alopecurus myosuroides, post-emergence, 312 h, read-out: Post-Emergence Activity ALOMY (100=total damage to plant; 0=no damage to plant)
Method: as §1, §2, §3

[9] = tested on: Echinochloa crus-galli (ECHCG); test: Example A glasshouse herbicide test, post-emergence, ECHCG; details: Rate 250 g/ha, sprayed after 8 days cultivation, evaluated after 13 days; for pest or weed control at 250 g/ha: Echinochloa crus-galli, post-emergence, 312 h, read-out: Post-Emergence Activity ECHCG (100=total damage to plant; 0=no damage to plant)
Method: as §1, §2, §3

Avena fatua (AVEFA) [10] = test: Example A glasshouse herbicide test, post-emergence, AVEFA; details: Rate 250 g/ha, sprayed after 8 days cultivation, evaluated after 13 days; for pest or weed control at 250 g/ha: Avena fatua, post-emergence, 312 h, read-out: Post-Emergence Activity AVEFA (100=total damage to plant; 0=no damage to plant)
Method: as §1, §2, §3

Molecule | pest or weed control at 250 g/ha (Lolium perenne (LOLPE) [1]) [%] | pest or weed control at 250 g/ha [2] [%] | pest or weed control at 250 g/ha [3] [%] | pest or weed control at 250 g/ha (Avena fatua (AVEFA) [4]) [%] | Winter Wheat (Hereward) damage (100=total damage to plant; 0=no damage to plant) [5] | Winter Wheat (Hereward) + cloquintocet mexyl damage (100=total damage to plant; 0=no damage to plant) [6] | pest or weed control at 250 g/ha (Lolium perenne (LOLPE) [7]) [%] | pest or weed control at 250 g/ha [8] [%] | pest or weed control at 250 g/ha [9] [%] | pest or weed control at 250 g/ha (Avena fatua (AVEFA) [10]) [%] | Post-Emergence Activity LOLPE (100=total damage to plant; 0=no damage to plant) (Lolium perenne (LOLPE) [7]) | Post-Emergence Activity ALOMY (100=total damage to plant; 0=no damage to plant) [8] | Post-Emergence Activity ECHCG (100=total damage to plant; 0=no damage to plant) [9] | Post-Emergence Activity AVEFA (100=total damage to plant; 0=no damage to plant) (Avena fatua (AVEFA) [10]) | Pre-Emergence Activity LOLPE (100=total damage to plant; 0=no damage to plant) (Lolium perenne (LOLPE) [1]) | Pre-Emergence Activity ALOMY (100=total damage to plant; 0=no damage to plant) [2] | Pre-Emergence Activity ECHCG (100=total damage to plant; 0=no damage to plant) [3] | Pre-Emergence Activity AVEFA (100=total damage to plant; 0=no damage to plant) (Avena fatua (AVEFA) [4])
Cc1cc(C)c(C2=C(OC(=O)C(C)(C)C)C(CC3CCC(=NO)CC3)CC2=O)c(C)c1 (stereo not drawn) [Compound B5] | 90 | 70 | 70 | 40 | 40 | 10 |  |  |  |  |  |  |  |  |  |  |  | 
Cc1cc(C)c(C2=C(OC(=O)C(C)(C)C)CC(Cc3ccccc3C)C2=O)c(C)c1 (stereo not drawn) [Compound B10] | 100 | 30 | 30 | 20 |  |  | 90 | 50 | 40 | 30 |  |  |  |  |  |  |  | 
Cc1cc(C)c(C2C(=O)CC(CC3CCCCC3C)C2=O)c(C)c1 (stereo not drawn) [Compound A29] | 90 | 50 | 90 | 50 |  |  | 90 | 0 | 50 | 0 |  |  |  |  |  |  |  | 
COc1ccc(CC2CC(OC(=O)C(C)(C)C)=C(c3c(C)cc(C)cc3C)C2=O)cc1 (stereo not drawn) [Compound B19] | 80 | 40 | 10 | 30 |  |  | 80 | 80 | 30 | 60 |  |  |  |  |  |  |  | 
Cc1cc(C)c(C2=C(OC(=O)C(C)(C)C)CC(Cc3cc(F)cc(F)c3)C2=O)c(C)c1 (stereo not drawn) [Compound B15] | 70 | 20 | 40 | 20 |  |  | 70 | 10 | 50 | 10 |  |  |  |  |  |  |  | 
CC(=O)OC1CCC(CC2CC(=O)C(c3c(C)cc(C)cc3C)=C2OC(=O)C(C)(C)C)CC1 (stereo not drawn) [Compound B4] |  |  |  |  |  |  | 90 | 60 | 70 | 80 |  |  |  |  |  |  |  | 
Cc1cc(C)c(C2=C(OC(=O)C(C)(C)C)CC(Cc3cccc(Oc4ccccc4)c3)C2=O)c(C)c1 (stereo not drawn) [Compound B7] | 20 | 30 | 0 | 0 |  |  | 20 | 20 | 20 | 0 |  |  |  |  |  |  |  | 
Cc1cccc(CC2CC(OC(=O)C(C)(C)C)=C(c3c(C)cc(C)cc3C)C2=O)c1 (stereo not drawn) [Compound B13] | 70 | 40 | 60 | 20 |  |  | 80 | 60 | 60 | 30 |  |  |  |  |  |  |  | 
2,2-dimethyl-propionic acid 4-(4-fluoro-benzyl)-3-oxo-2-(2,4,6-trimethyl-phenyl)-cyclopent-1-enyl ester [Compound B9] |  |  |  |  |  |  |  |  |  |  | 80 | 70 | 80 | 20 | 100 | 90 | 70 | 40
Cc1cc(C)c(C2=C(OC(=O)C(C)(C)C)CC(Cc3ccccc3)C2=O)c(C)c1 (stereo not drawn) [Compound B12] | 90 | 30 | 40 | 20 |  |  | 90 | 60 | 50 | 30 |  |  |  |  |  |  |  | 
Cc1cc(C)c(C2=C(OC(=O)C(C)(C)C)CC(Cc3ccc(S(C)(=O)=O)cc3)C2=O)c(C)c1 (stereo not drawn) [Compound B18] | 70 | 60 | 80 | 60 |  |  | 50 | 70 | 80 | 80 |  |  |  |  |  |  |  | 
COC1CCC(/C=C2\CC(=O)C(c3c(C)cc(C)cc3C)C2=O)CC1 (stereo not drawn) [Compound A39, 4-[1-(4-Methoxy-cyclohexyl)-meth-(E)-ylidene]-2-(2,4,6-trimethyl-phenyl)-cyclopentane-1,3-dione] | 50 | 60 | 100 | 80 |  |  | 50 | 90 | 100 | 90 |  |  |  |  |  |  |  | 
Cc1cc(C)cc(CC2CC(OC(=O)C(C)(C)C)=C(c3c(C)cc(C)cc3C)C2=O)c1 (stereo not drawn) [Compound B16] | 80 | 40 | 50 | 10 |  |  | 40 | 30 | 50 | 10 |  |  |  |  |  |  |  | 
Cc1cc(C)c(C2=C(OC(=O)C(C)(C)C)CC(Cc3ccc(C#N)cc3)C2=O)c(C)c1 (stereo not drawn) [Compound B14] | 80 | 60 | 50 | 10 |  |  | 60 | 70 | 70 | 50 |  |  |  |  |  |  |  | 
Cc1cc(C)c(C2=C(OC(=O)C(C)(C)C)CC(Cc3ccc(F)cc3)C2=O)c(C)c1 (stereo not drawn) [Compound B8] | 100 | 70 | 50 | 30 |  |  | 70 | 40 | 40 | 20 |  |  |  |  |  |  |  | 
